Broadly, the IC50 is the concentration at which inhibition is half-maximal.

The text below walks through data of patent US8664257B2, “Oxygen-substituted 3-heteroaroylamino-propionic acid derivatives and their use as pharmaceuticals” (Sanofi, priority 2010, dated 2014).

The test addresses T1, Recombinant human cathepsin A (Homo sapiens, UniProt P10619).
T1 construct: Recombinant human cathepsin A (residues 29-480, with a C-terminal 10-His tag); 10-His (C); purchased R&D Systems 1049-SE
T1 sequence (P10619 29-312 limits assumed): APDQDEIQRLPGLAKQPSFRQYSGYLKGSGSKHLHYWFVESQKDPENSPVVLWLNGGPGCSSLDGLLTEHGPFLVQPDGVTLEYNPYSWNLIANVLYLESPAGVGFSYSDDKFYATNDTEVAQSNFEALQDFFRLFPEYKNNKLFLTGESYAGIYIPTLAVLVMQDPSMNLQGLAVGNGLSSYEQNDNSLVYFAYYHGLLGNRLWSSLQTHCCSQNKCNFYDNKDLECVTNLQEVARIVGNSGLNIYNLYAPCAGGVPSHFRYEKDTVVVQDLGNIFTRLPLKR
T1 sequence (P10619 327-480 limits assumed): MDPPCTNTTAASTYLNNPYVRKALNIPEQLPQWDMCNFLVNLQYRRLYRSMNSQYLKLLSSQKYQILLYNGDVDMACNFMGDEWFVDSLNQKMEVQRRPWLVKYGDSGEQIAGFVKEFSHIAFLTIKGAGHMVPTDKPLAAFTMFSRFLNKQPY
Put plainly: Cathepsin A inhibitory activity. Type of test: biochemical. Put shortly:
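Read-out was microfluidic separation of cleaved vs. uncleaved Bodipy FL-bradykinin (2 μM), giving turnover, % inhibition and IC50. Compound and 833 ng/ml enzyme met for 15 min RT in pH 5.5 MES/DTT before substrate (15 min RT). The 29-480 His-tagged human enzyme was first activated by cathepsin L, then E-64 (10 μM).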

Setting [1] is: read-out: Activity (2): Cathepsin A inhibitory activity, IC50 class.
[2] abbreviates: recombinant human cathepsin A, read-out: Activity (2): Cathepsin A inhibitory activity, IC50 class.

Read-outs that look alike come from different tables or passages of the source.

Turning to `O=C(O)CC(NC(=O)c1cc(O)n(-c2ccc(F)cc2)n1)c1ccc(Cl)cc1F` (centres unmarked) [Example 357], under setting [1], the IC50 lay within 100 to 1000 nM.
On to `Cc1cccc(C(CC(=O)O)NC(=O)c2cc(O)n(-c3ccc(F)cc3)n2)c1C` (centres unmarked) [Example 358], for which, under setting [1], the concentration for half-maximal inhibition (IC50) lay within 100 to 1000 nM.
Regarding `Cc1ccc(C)c(C(CC(=O)O)NC(=O)c2cc(O)n(-c3ccc(F)cc3)n2)c1` (centres unmarked) [Example 359], under setting [1], the half-maximal inhibitory concentration (IC50) fell in the range of 1000 to 30000 nM.
Regarding `O=C(O)CC(NC(=O)c1cc(O)n(-c2ccc(F)cc2)n1)c1cccc(C(F)(F)F)c1F` (centres unmarked) [Example 360], the IC50 under setting [1] lay in the range of 100 to 1000 nM.
Same read-out and setting: next, `O=C(O)CC(NC(=O)c1cc(O)n(-c2ccc(F)cc2)n1)c1cccc(Cl)c1F` (centres unmarked) [Example 361]: 100 to 1000 nM; `O=C(O)CC(NC(=O)c1cc(O)n(-c2ccc(F)cc2)n1)c1cccc(C(F)(F)F)c1Cl` (centres unmarked) [Example 362]: 100 to 1000 nM; `CCc1ccc(C(CC(=O)O)NC(=O)c2cc(O)n(-c3ccc(F)cc3)n2)cc1` (centres unmarked) [Example 363]: 100 to 1000 nM.
For `Cc1cc(F)ccc1C(CC(=O)O)NC(=O)c1cc(O)n(-c2ccc(F)cc2)n1` (centres unmarked) [Example 364], the IC50 under setting [1] lay within 100 to 1000 nM.
On to `O=C(O)CC(NC(=O)c1cc(O)n(-c2ccc(F)cc2)n1)c1ccc(-c2ccccc2)cc1` (centres unmarked) [Example 365], for which the half-maximal inhibitory concentration (IC50) under setting [1] was in the range of 100 to 1000 nM.
`O=C(O)C[C@H](NC(=O)c1cc(O)n(-c2ccc(F)cc2)n1)c1ccccc1F` [Example 366]: the IC50 under setting [1] was in the range of 100 to 1000 nM.
Take `O=C(O)C[C@H](NC(=O)c1cc(O)n(-c2ccc(F)cc2)n1)c1ccccc1C(F)(F)F` [Example 367]: the IC50 under setting [1] was in the range of 100 to 1000 nM.
In the case of `O=C(O)C[C@H](NC(=O)c1cc(O)n(-c2ccc(F)cc2)n1)c1c(F)cccc1F` [Example 368], the IC50 under setting [1] lay in the range of 100 to 1000 nM.
Take `O=C(O)C[C@H](NC(=O)c1cc(O)n(-c2ccc(F)cc2)n1)c1ccc(Cl)cc1` [Example 369]: under setting [1], the half-inhibitory concentration (IC50) fell in the range of 100 to 1000 nM.
For `O=C(O)C[C@H](NC(=O)c1cc(O)n(-c2ccc(F)cc2)n1)c1ccc(Cl)cc1Cl` [Example 370], the IC50 under setting [1] is 100 to 1000 nM.
`O=C(O)CC(NC(=O)c1cc(O)n(-c2ccc(F)cc2)n1)c1ccc(-c2ccc(F)cc2)cc1` (centres unmarked) [Example 371]: under setting [1], the IC50 was 100 to 1000 nM.
Still for that read-out and setting: under `O=C(O)C[C@H](NC(=O)c1cc(O)n(-c2ccc(F)cc2)n1)c1cccnc1` [Example 372] stands 1000 to 30000 nM; under `COc1ccc(C(CC(=O)O)NC(=O)c2cc(O)n(-c3ccccc3)n2)c(C)c1` (centres unmarked) [Example 373], 100 to 1000 nM; under `COc1ccc([C@H](CC(=O)O)NC(=O)c2cc(O)n(-c3ccccc3)n2)cc1` [Example 374], 100 to 1000 nM.
As for `COc1ccc(Cl)cc1C(CC(=O)O)NC(=O)c1cc(O)n(-c2ccccc2)n1` (centres unmarked) [Example 375], the IC50 under setting [1] is 100 to 1000 nM.
Still for that read-out and setting: next, `Cc1cccc([C@H](CC(=O)O)NC(=O)c2cc(O)n(-c3ccccc3)n2)c1` [Example 376]: 100 to 1000 nM; `Cc1cccc(C(CC(=O)O)NC(=O)c2cc(O)n(-c3ccccc3)n2)c1C` (centres unmarked) [Example 377]: 100 to 1000 nM; `Cc1ccc(C)c(C(CC(=O)O)NC(=O)c2cc(O)n(-c3ccccc3)n2)c1` (centres unmarked) [Example 378]: 100 to 1000 nM.
In the case of `COc1ccc(C(CC(=O)O)NC(=O)c2cc(O)n(-c3ccc(F)cc3F)n2)c(C)c1` (centres unmarked) [Example 379], the IC50 under setting [1] fell in the range of 100 to 1000 nM.
Regarding `O=C(O)CC(NC(=O)c1cc(O)n(-c2ccc(F)cc2F)n1)c1cccc(Cl)c1` (centres unmarked) [Example 380], the IC50 under setting [1] lay in the range of 100 to 1000 nM.
As for `N#Cc1cccc([C@H](CC(=O)O)NC(=O)c2cc(O)n(-c3ccc(F)cc3F)n2)c1` [Example 381], the IC50 under setting [1] was 100 to 1000 nM.
Consider `COc1ccc([C@H](CC(=O)O)NC(=O)c2cc(O)n(-c3ccc(F)cc3F)n2)cc1` [Example 382], for which, under setting [1], the IC50 lay within 100 to 1000 nM.
`COc1ccc(C(CC(=O)O)NC(=O)c2cc(O)n(-c3ccc(F)cc3F)n2)c(OC)c1` (centres unmarked) [Example 383]: under setting [1], the IC50 fell in the range of 100 to 1000 nM.
`O=C(O)CC(NC(=O)c1cc(O)n(-c2ccc(F)cc2F)n1)c1ccc(-c2cccc(F)c2)cc1` (centres unmarked) [Example 384]: under setting [1], the IC50 is 100 to 1000 nM.
Regarding `O=C(O)CC(NC(=O)c1cc(O)n(-c2ccc(F)cc2F)n1)c1cccc(C(F)(F)F)c1F` (centres unmarked) [Example 385, 3-{[1-(2,4-Difluoro-phenyl)-5-hydroxy-1H-pyrazole-3-carbonyl]-amino}-3-(2-fluoro-3-trifluoromethyl-phenyl)-propionic acid], the IC50 is < 100 nM under setting [1] and 60.7 nM (recombinant human cathepsin A 833 ng/ml, Bodipy FL-labeled bradykinin 2 μM, pH 5.5, read-out: CATH-A IC50).
For the compound `O=C(O)CC(NC(=O)c1cc(O)n(-c2ccc(F)cc2F)n1)c1cccc(Oc2ccc(Cl)cc2)c1` (centres unmarked) [Example 386], the IC50 under setting [1] lay in the range of 100 to 1000 nM.
On to `O=C(O)C[C@H](NC(=O)c1cc(O)n(-c2ccc(F)cc2F)n1)c1ccccc1F` [Example 387], for which, under setting [1], the IC50 was in the range of 100 to 1000 nM.
For `O=C(O)C[C@H](NC(=O)c1cc(O)n(-c2ccc(F)cc2F)n1)c1c(F)cccc1F` [Example 388], the IC50 under setting [1] was in the range of 100 to 1000 nM.
On to `O=C(O)C[C@H](NC(=O)c1cc(O)n(-c2ccc(F)cc2F)n1)c1cccnc1` [Example 389], for which the IC50 under setting [1] is 1000 to 30000 nM.
The same measure, in the same setting: under `COc1ccc([C@H](CC(=O)O)NC(=O)c2cc(O)n(-c3ccc(F)cc3F)n2)cn1` [Example 390] stands 100 to 1000 nM; under `O=C(O)CC(NC(=O)c1cc(O)n(-c2ccccc2Cl)n1)c1cccc(Cl)c1` (centres unmarked) [Example 391], 100 to 1000 nM; under `COc1ccc([C@H](CC(=O)O)NC(=O)c2cc(O)n(-c3ccccc3Cl)n2)cc1` [Example 392], 100 to 1000 nM.
The same measure, in the same setting: next, `O=C(O)C[C@H](NC(=O)c1cc(O)n(-c2ccccc2Cl)n1)c1cccc(F)c1` [Example 393]: 100 to 1000 nM; `COc1cccc([C@H](CC(=O)O)NC(=O)c2cc(O)n(-c3ccccc3Cl)n2)c1OC` [Example 394]: 100 to 1000 nM; `COc1ccc(C(CC(=O)O)NC(=O)c2cc(O)n(-c3ccccc3F)n2)c(C)c1` (centres unmarked) [Example 395]: 100 to 1000 nM.
The same measure, in the same setting: under `O=C(O)CC(NC(=O)c1cc(O)n(-c2ccccc2F)n1)c1cccc(Cl)c1` (centres unmarked) [Example 396] stands 100 to 1000 nM; under `O=C(O)C[C@H](NC(=O)c1cc(O)n(-c2ccccc2F)n1)c1ccccc1Br` [Example 397], < 100 nM; under `COc1ccc([C@H](CC(=O)O)NC(=O)c2cc(O)n(-c3ccccc3F)n2)cc1` [Example 398], 100 to 1000 nM.
In the case of `O=C(O)C[C@H](NC(=O)c1cc(O)n(-c2ccccc2F)n1)c1cccc(Cl)c1Cl` [Example 399], the IC50 under setting [1] was < 100 nM.
As for `O=C(O)C[C@H](NC(=O)c1cc(O)n(-c2ccccc2F)n1)c1cccc(F)c1` [Example 400], the IC50 under setting [1] is 100 to 1000 nM.
Consider `O=C(O)C[C@H](NC(=O)c1cc(O)n(-c2ccccc2F)n1)c1cccc(Cl)c1` [Example 401], for which the IC50 under setting [1] was 100 to 1000 nM.
Turning to `O=C(O)CC(NC(=O)c1cc(O)n(-c2ccccc2F)n1)c1cccc(Cl)c1Cl` (centres unmarked) [Example 402], under setting [1], the IC50 is < 100 nM.
With `COc1cccc([C@H](CC(=O)O)NC(=O)c2cc(O)n(-c3ccccc3F)n2)c1OC` [Example 403], the half-maximal inhibitory concentration (IC50) under setting [1] lay within 100 to 1000 nM.
Regarding `Cc1cccc([C@H](CC(=O)O)NC(=O)c2cc(O)n(-c3ccccc3F)n2)c1` [Example 404], the half-maximal inhibitory concentration (IC50) under setting [1] lay within 100 to 1000 nM.
As to `Cc1cccc(C(CC(=O)O)NC(=O)c2cc(O)n(-c3ccccc3F)n2)c1C` (centres unmarked) [Example 405], the IC50 under setting [2] is < 100 nM.
As for `Cc1ccc(C)c(C(CC(=O)O)NC(=O)c2cc(O)n(-c3ccccc3F)n2)c1` (centres unmarked) [Example 406], the IC50 under setting [2] was 100 to 1000 nM.
For the compound `O=C(O)CC(NC(=O)c1cc(O)n(-c2ccccc2F)n1)c1ccc(Cl)c(Cl)c1` (centres unmarked) [Example 407], the IC50 under setting [2] is 100 to 1000 nM.
On the same count and under the same terms, next, `O=C(O)CC(NC(=O)c1cc(O)n(-c2cccc(Cl)c2)n1)c1cccc(Cl)c1` (centres unmarked) [Example 408]: 100 to 1000 nM; `COc1ccc([C@H](CC(=O)O)NC(=O)c2cc(O)n(-c3cccc(Cl)c3)n2)cc1` [Example 409]: 1000 to 30000 nM; `N#Cc1ccc([C@H](CC(=O)O)NC(=O)c2cc(O)n(-c3cccc(Cl)c3)n2)cc1` [Example 410]: 1000 to 30000 nM.
Take `O=C(O)C[C@H](NC(=O)c1cc(O)n(-c2cccc(Cl)c2)n1)c1ccc(F)cc1` [Example 411]: the IC50 under setting [2] lay within 1000 to 30000 nM.
As for `O=C(O)C[C@H](NC(=O)c1cc(O)n(-c2cccc(Cl)c2)n1)c1cccc(Cl)c1Cl` [Example 412], the IC50 under setting [2] was 1000 to 30000 nM.
As to `COc1cccc([C@H](CC(=O)O)NC(=O)c2cc(O)n(-c3cccc(Cl)c3)n2)c1` [Example 413], the IC50 under setting [2] was in the range of 1000 to 30000 nM.
On to `O=C(O)C[C@H](NC(=O)c1cc(O)n(-c2cccc(Cl)c2)n1)c1cccc(F)c1` [Example 414], for which, under setting [2], the IC50 lay in the range of 1000 to 30000 nM.
Still for that read-out and setting: next, `O=C(O)C[C@H](NC(=O)c1cc(O)n(-c2cccc(Cl)c2)n1)c1cccc(Cl)c1` [Example 415]: 100 to 1000 nM.
Take `COc1ccccc1[C@@H](NC(=O)c1cc(O)n(-c2cccc(Cl)c2)n1)[C@@H](O)C(=O)O` [Example 416]: the IC50 under setting [2] lay within 1000 to 30000 nM.
Take `COc1cccc([C@H](CC(=O)O)NC(=O)c2cc(O)n(-c3cccc(Cl)c3)n2)c1OC` [Example 417]: under setting [2], the IC50 was 100 to 1000 nM.
